# Values quoted from earlier work as cited in patent US5270047A, “Local delivery of dipyridamole for the treatment of proliferative diseases” (priority 1991, dated 1993).
# Tested on: vascular restenosis
# Details: current pharmacologic therapies after PTCA, atherectomy, laser angioplasty, bypass graft surgery; cited from earlier work
row,Compound,effect for the treatment and prevention of vascular restenosis
1,CC(=O)Oc1ccccc1C(=O)O [aspirin],ineffective for the treatment and prevention of vascular restenosis
2,O=c1ccc2ccccc2o1 [coumarin],ineffective for the treatment and prevention of vascular restenosis
3,heparin,ineffective for the treatment and prevention of vascular restenosis
4,low molecular weight heparin,ineffective for the treatment and prevention of vascular restenosis
5,CCCCC[C@H](O)/C=C/[C@@H]1[C@H]2C/C(=C/CCCC(=O)O)O[C@H]2C[C@H]1O [prostacyclin],ineffective for the treatment and prevention of vascular restenosis
